ChEMBL document CHEMBL3580546, “Structure-activity study of N-((trans)-4-(2-(7-cyano-3,4-dihydroisoquinolin-2(1H)-yl)ethyl)cyclohexyl)-1H-indole-2-carboxamide (SB269652), a bitopic ligand that acts as a negative allosteric modulator of the dopamine D2 receptor” (J Med Chem, 2015)

Key:
[1] = target: D(2) dopamine receptor (Homo sapiens) (UniProt P14416); assay: Displacement of [3H]raclopride from wild type human dopamine D2L receptor expressed in FlpIn CHO cell membrane assessed as equilibrium dissociation constant after 3 hrs by MicroBeta counting analysis; type: cell membranes
[2] = target: D(2) dopamine receptor (Homo sapiens) (UniProt P14416); assay: Negative allosteric modulator activity at wild type human dopamine D2L receptor expressed in FlpIn CHO […] assessed as ERK1/2 phosphorylation measured as equilibrium dissociation constant after 30 mins; type: cell-based
[3] = target: D(2) dopamine receptor (Homo sapiens) (UniProt P14416); assay: Binding affinity to human dopamine D2 receptor

D(2) dopamine receptor (Homo sapiens), sequence (P14416 whole entry): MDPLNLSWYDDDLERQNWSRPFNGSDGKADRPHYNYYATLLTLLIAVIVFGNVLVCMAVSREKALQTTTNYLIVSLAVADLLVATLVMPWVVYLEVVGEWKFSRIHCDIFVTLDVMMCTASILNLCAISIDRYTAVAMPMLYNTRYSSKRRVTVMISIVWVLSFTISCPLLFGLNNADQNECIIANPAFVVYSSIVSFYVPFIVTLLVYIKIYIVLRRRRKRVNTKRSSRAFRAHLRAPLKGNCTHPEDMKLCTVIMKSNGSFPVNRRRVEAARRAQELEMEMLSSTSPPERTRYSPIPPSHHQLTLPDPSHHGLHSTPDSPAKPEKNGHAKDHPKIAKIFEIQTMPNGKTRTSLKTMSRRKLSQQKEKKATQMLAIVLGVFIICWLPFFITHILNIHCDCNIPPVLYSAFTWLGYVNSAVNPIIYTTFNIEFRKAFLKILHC

| Kb [1] [nM] | pKb [1] | Kb [2] [nM] | pKb [2] | SMILES | Kb [3] [nM] |
| --- | --- | --- | --- | --- | --- |
| 45.7 | 7.34 | 23.4 | 7.63 | N#Cc1ccc2c(c1)CN(CC[C@H]1CC[C@H](NC(=O)c3cc4cccnc4[nH]3)CC1)CC2 |  |
| 479 | 6.32 | 132 | 6.88 | N#Cc1ccc2c(c1)CN(CCCCCNC(=O)c1cc3ccccc3[nH]1)CC2 |  |
| 263 | 6.58 | 18.2 | 7.74 | N#Cc1ccc2c(c1)CN(CC[C@H]1CC[C@H](NC(=O)c3nc4ccccc4o3)CC1)CC2 |  |
| 148 | 6.83 | 2090 | 5.68 | O=C(N[C@H]1CC[C@H](CCN2CCc3ccc(Cl)cc3C2)CC1)c1cc2ccccc2[nH]1 |  |
| 363 | 6.74 | 45.7 | 7.34 | N#Cc1ccc2c(c1)CN(CC[C@H]1CC[C@H](NC(=O)[C@H]3CCCN3)CC1)CC2 |  |
| 151 | 6.82 | 22.9 | 7.64 | N#Cc1ccc2c(c1)CN(CC[C@H]1CC[C@H](NC(=O)C3=Cc4ccccc4C3)CC1)CC2 |  |
| 245 | 6.61 | 1050 | 5.98 | O=C(N[C@H]1CC[C@H](CCN2CCc3ccc(F)cc3C2)CC1)c1cc2ccccc2[nH]1 |  |
| 2510 | 5.6 | 2570 | 5.59 | O=C(N[C@H]1CC[C@H](CCN2CCCc3ccccc3C2)CC1)c1cc2ccccc2[nH]1 |  |
| 759 | 6.12 | 891 | 6.05 | O=C(N[C@H]1CC[C@H](CCN2CCc3ccc(C(F)(F)F)cc3C2)CC1)c1cc2ccccc2[nH]1 |  |
| 158 | 6.8 | 81.2 | 7.09 | N#Cc1ccc2c(c1)CN(CCCCNC(=O)c1cc3ccccc3[nH]1)CC2 |  |
| 5.25 | 8.28 | 1.38 | 8.86 | O=C(N[C@H]1CC[C@H](CCN2CCN(c3cccc(Cl)c3Cl)CC2)CC1)c1cc2ccccc2[nH]1 |  |
| 282 | 6.55 | 18.2 | 7.74 | N#Cc1ccc2c(c1)CN(CC[C@H]1CC[C@H](NC(=O)c3cc4ccccc4o3)CC1)CC2 |  |
| 117 | 6.93 | 91.2 | 7.04 | CN(C(=O)c1cc2ccccc2[nH]1)[C@H]1CC[C@H](CCN2CCc3ccc(C#N)cc3C2)CC1 |  |
| 81.3 | 7.09 | 174 | 6.76 | N#Cc1ccc2c(c1)CN(CC[C@H]1CC[C@H](NC(=O)c3nc4ccccc4[nH]3)CC1)CC2 |  |
| 295 | 6.53 | 87 | 7.06 | O=C(N[C@H]1CC[C@H](CCN2CCc3ccccc3C2)CC1)c1cc2ccccc2[nH]1 |  |
| 269 | 6.57 | 30.1 | 7.52 | N#Cc1ccc2c(c1)CN(CCCCCCNC(=O)c1cc3ccccc3[nH]1)CC2 |  |
| 170 | 6.77 | 138 | 6.86 | O=C(N[C@H]1CC[C@H](CCN2CCc3ccc(Br)cc3C2)CC1)c1cc2ccccc2[nH]1 |  |
|  |  |  |  | N#Cc1ccc2c(c1)CNCC2 | 2500 |
| 3.4 | 8.41 | 0.257 | 9.59 | COc1ccccc1N1CCN(CC[C@H]2CC[C@H](NC(=O)c3cc4ccccc4[nH]3)CC2)CC1 |  |
| 151 | 6.82 | 72.4 | 7.14 | Cn1c(C(=O)N[C@H]2CC[C@H](CCN3CCc4ccc(C#N)cc4C3)CC2)cc2ccccc21 |  |
| 372 | 6.43 | 138 | 6.86 | N#Cc1ccc2c(c1)CN(CCCNC(=O)c1cc3ccccc3[nH]1)CC2 |  |
| 23.4 | 7.63 | 27.5 | 7.56 | N#Cc1ccc2c(c1)CN(CC[C@H]1CC[C@H](NC(=O)[C@@H]3CCCN3)CC1)CC2 |  |
| 2240 | 5.65 | 339 | 6.47 | O=C(N[C@H]1CC[C@H](CCN2CCc3sccc3C2)CC1)c1cc2ccccc2[nH]1 |  |
| 57.5 | 7.24 | 3.31 | 8.48 | N#Cc1ccc2c(c1)CN(CC[C@H]1CC[C@H](NC(=O)c3ccc[nH]3)CC1)CC2 |  |
